This passage reports IC50 and IC90 results from ChEMBL document CHEMBL4483862, “Open-source discovery of chemical leads for next-generation chemoprotective antimalarials” (2018).

The term IC50 denotes the midpoint of a concentration-inhibition curve. What is called IC90 is the concentration at which the effect reaches the 90% level.

Structures are written as SMILES. Where only a bound is given, the exact number is not on record here.

The test system of this assay is Plasmodium berghei. Description: Luciferase/luciferin-expressing antifolate-resistant parasites were used to infect a culture of HepG2 cells that were pre-incubated with compounds. Infected hepatocytes emit light due to the luciferase reaction. Assay results are presented as the percent inhibition of light emission compared to control. […]. It counts as functional. The settings on record: sporozoite; for IC90: read-out: LUCIFERASE INFECTION ASSAY - IC90.

As to `CC[n+]1c(/C=C/c2ccc(SC)cc2)ccc2ccccc21`, the IC90 is more than 7.62 µM. Also, the IC50 (PBLUC_HILL_SLOPE 11.6, PBLUC_R_SQUARED 0.0577, read-out: LUCIFERASE INFECTION ASSAY - IC50) is more than 7.62 µM.

Take `CN(C)CCNc1nc(Oc2cccc3ccccc23)c2sccc2n1`: the IC90 was more than 9.05 µM. In addition, where the note is “PBLUC_HILL_SLOPE 11.6, PBLUC_R_SQUARED 0.0493, read-out: LUCIFERASE INFECTION ASSAY - IC50”, the IC50 is 8.94 µM.

Regarding `CCOc1cccc(-c2cn3c(-c4cccc(CO)c4)cnc3cn2)c1`, the IC90 was more than 9.55 µM. For the setting “PBLUC_HILL_SLOPE 11.7, PBLUC_R_SQUARED 0.129, read-out: LUCIFERASE INFECTION ASSAY - IC50”, the IC50 turned out to be 8.63 µM.

Consider `CCn1c(NC(=O)c2oc3ccccc3c2COC)nc2ccccc21`, for which the IC90 was 4.5 µM. The IC50 (PBLUC_HILL_SLOPE 11.7, PBLUC_R_SQUARED 0.368, read-out: LUCIFERASE INFECTION ASSAY - IC50) was determined as 3.72 µM.

As for `CCC(C)NCCCCOc1cc(C(C)C)ccc1C` (configuration not stated), the IC90 is more than 10 µM. In addition, under “PBLUC_HILL_SLOPE 11.7, PBLUC_R_SQUARED 0.0741, read-out: LUCIFERASE INFECTION ASSAY - IC50”, the IC50 is more than 10 µM.

For `O=C(Nn1cnc2sc3c(c2c1=O)CCCC3)c1cc(Br)ccc1O`, the IC90 was more than 10 µM. Moreover, the IC50 (PBLUC_HILL_SLOPE 11.5, PBLUC_R_SQUARED 0.145, read-out: LUCIFERASE INFECTION ASSAY - IC50) worked out at 9.56 µM.

With `O=C(Nn1cnc2ccccc21)c1ccccc1Nc1ccc(SC(F)F)cc1`, the IC90 was more than 10 µM. Further, the IC50 (PBLUC_HILL_SLOPE 11.6, PBLUC_R_SQUARED 0.0782, read-out: LUCIFERASE INFECTION ASSAY - IC50) is 8.68 µM.

As for `CCOc1ccc(NS(=O)(=O)c2ccc(NC(=O)c3ccc(OC)c(S(=O)(=O)N4CCCCC4C)c3)cc2)cc1` (configuration not stated), the IC90 is more than 10 µM. Further, the IC50 (PBLUC_HILL_SLOPE 11.8, PBLUC_R_SQUARED 0.201, read-out: LUCIFERASE INFECTION ASSAY - IC50) turned out to be 9.44 µM.

For the compound `CC(C)C(=O)Nc1c(-c2ccc(Cl)c(Cl)c2)c(=O)c2ccccc2n1C`, the IC90 came out at 3.11 µM. Also, under “PBLUC_HILL_SLOPE 11.7, PBLUC_R_SQUARED 0.375, read-out: LUCIFERASE INFECTION ASSAY - IC50”, the IC50 worked out at 2.58 µM.

Consider `CC(C)Cc1nc2oc3c(NCCN(C)C)ncnc3c2c2c1COC(C)(C)C2`, for which the IC90 was more than 8.3 µM. Further, the IC50 (PBLUC_HILL_SLOPE 11.6, PBLUC_R_SQUARED 0.0696, read-out: LUCIFERASE INFECTION ASSAY - IC50) stood at 7.66 µM.

As to `Nc1ccc(-c2cn3c(-c4ccc(O)cc4)cnc3cn2)cn1`, the IC90 was more than 10.9 µM. Further, the IC50 (PBLUC_HILL_SLOPE 11.6, PBLUC_R_SQUARED 0.257, read-out: LUCIFERASE INFECTION ASSAY - IC50) turned out to be 10.2 µM.

With `Cc1cc(C)nc(SCC(=O)N2CCN(C(=O)c3ccco3)CC2)n1`, the IC90 came to 3.74 µM. Further, the IC50 (PBLUC_HILL_SLOPE 11.5, PBLUC_R_SQUARED 0.424, read-out: LUCIFERASE INFECTION ASSAY - IC50) was 3.09 µM.

Regarding `O=[N+]([O-])c1cnc(Sc2nnc(SCC3CC3)s2)s1`, the IC90 is more than 9.93 µM. The IC50 (PBLUC_HILL_SLOPE 11.6, PBLUC_R_SQUARED 0.0358, read-out: LUCIFERASE INFECTION ASSAY - IC50) worked out at 9.69 µM.

`O=C(/C=C/c1csc(-c2ccc(Cl)cc2)n1)c1cccc(O)c1`: the IC90 was 4.93 µM. Moreover, the IC50 (PBLUC_HILL_SLOPE 11.6, PBLUC_R_SQUARED 0.644, read-out: LUCIFERASE INFECTION ASSAY - IC50) worked out at 4.08 µM.

As for `CC(=O)c1c(C)[nH]c(C(=O)CSc2c(C)c(C)cc(C)c2C)c1C`, the IC90 is more than 10 µM. Further, the IC50 (PBLUC_HILL_SLOPE 11.6, PBLUC_R_SQUARED 0.344, read-out: LUCIFERASE INFECTION ASSAY - IC50) was more than 10 µM.

On to `c1cncc(-c2nc(Oc3ccc(-c4nnc5n4CCCCC5)cc3)c3ccccc3n2)c1`, for which the IC90 is more than 10 µM. Moreover, the IC50 (PBLUC_HILL_SLOPE 11.7, PBLUC_R_SQUARED 0.282, read-out: LUCIFERASE INFECTION ASSAY - IC50) is more than 10 µM.

As for `Cc1ccc(NC(=O)C(Sc2nnc3n(-c4ccccc4)c(=O)c4ccccc4n23)c2ccccc2)c([N+](=O)[O-])c1` (configuration not stated), the IC90 is more than 10 µM. The IC50 (PBLUC_HILL_SLOPE 11.5, 36.4, PBLUC_R_SQUARED 0.176, 0.319, read-out: LUCIFERASE INFECTION ASSAY - IC50) amounted to 9.56 µM.

With `Cn1c(SCC(=O)c2ccc(Cl)cc2)nnc1-c1ccc(C(C)(C)C)cc1`, the IC90 was more than 8.25 µM. The IC50 (PBLUC_HILL_SLOPE 11.7, PBLUC_R_SQUARED 0.0355, read-out: LUCIFERASE INFECTION ASSAY - IC50) is more than 8.25 µM.

As for `Cc1cc(C2=NN/C(=N/C3CC3)SC2)c(C)n1-c1cccc(S(=O)(=O)N2CCOCC2)c1`, the IC90 is more than 10 µM. Further, where the note is “PBLUC_HILL_SLOPE 11.7, PBLUC_R_SQUARED 0.69, read-out: LUCIFERASE INFECTION ASSAY - IC50”, the IC50 turned out to be 9.28 µM.

Take `Cc1cccc(C)c1NC(=O)Nc1nc(C(N)Cc2ccc(C(F)(F)F)cc2)cs1` (configuration not stated): the IC90 was more than 7.6 µM. Besides, the IC50 (PBLUC_HILL_SLOPE 11.8, PBLUC_R_SQUARED 0.0609, read-out: LUCIFERASE INFECTION ASSAY - IC50) worked out at 6.88 µM.

For `O=C(Nc1cc(C(F)(F)F)ccc1N1CCOCC1)c1ccc(SCc2cscn2)cc1`, the IC90 was more than 10 µM. Also, the IC50 (PBLUC_HILL_SLOPE 11.6, PBLUC_R_SQUARED 0.493, read-out: LUCIFERASE INFECTION ASSAY - IC50) stood at 8.97 µM.

Regarding `CC(C)(C)c1ccc(C(=O)Nc2cccc(F)c2C#N)cc1`, the IC90 is more than 11.1 µM. Further, the IC50 (PBLUC_HILL_SLOPE 11.7, PBLUC_R_SQUARED 0.257, read-out: LUCIFERASE INFECTION ASSAY - IC50) stood at 9.4 µM.

Take `COCCNC(=O)c1nn(CCC(C)C)c2c1CN(C(=O)c1cc(C)n[nH]1)CC2`: the IC90 was determined as 3.47 µM. The IC50 (PBLUC_HILL_SLOPE 11.6, PBLUC_R_SQUARED 0.412, read-out: LUCIFERASE INFECTION ASSAY - IC50) was found to be 2.87 µM.

In the case of `Cc1cc(NC(=O)/C=C/c2cn(-c3ccccc3)nc2-c2cccnc2)ccc1N1CCN(C)CC1`, the IC90 is 4.23 µM. Further, for the setting “PBLUC_HILL_SLOPE 11.7, PBLUC_R_SQUARED 0.29, read-out: LUCIFERASE INFECTION ASSAY - IC50”, the IC50 was 3.5 µM.

With `Cc1cc(C)c(NC(=O)CNC(=O)c2ccc(-c3ccccc3)cc2)c(C)c1`, the IC90 is more than 10 µM. For the same compound, the IC50 (PBLUC_HILL_SLOPE 11.6, PBLUC_R_SQUARED 0.0183, read-out: LUCIFERASE INFECTION ASSAY - IC50) was more than 10 µM.

Regarding `NC(Cc1ccc(Cl)cc1)c1csc(NC(=O)Nc2ccccc2Cc2ccccc2)n1` (configuration not stated), the IC90 is more than 7.13 µM. Also, the IC50 (PBLUC_HILL_SLOPE 11.7, PBLUC_R_SQUARED 0.713, read-out: LUCIFERASE INFECTION ASSAY - IC50) worked out at 6.46 µM.

On to `CN1CCCN(C(=O)C2CCN(c3oc(-c4ccco4)nc3C#N)CC2)c2nc3ccccc3nc21`, for which the IC90 was 4.67 µM. For the same compound, the IC50 (PBLUC_HILL_SLOPE 11.5, PBLUC_R_SQUARED 0.327, read-out: LUCIFERASE INFECTION ASSAY - IC50) is 3.86 µM.

For the compound `CSc1ccc(-c2cn3c(-c4ccc(C(=O)NC5CC5)cc4)cnc3cn2)cc1`, the IC90 was more than 8.24 µM. The IC50 (PBLUC_HILL_SLOPE 11.7, PBLUC_R_SQUARED 0.658, read-out: LUCIFERASE INFECTION ASSAY - IC50) amounted to 7.27 µM.

`Clc1ccc(N/N=C/Cc2nnnn2-c2ccccc2)cc1`: the IC90 is more than 10.6 µM. In addition, the IC50 (PBLUC_HILL_SLOPE 11.7, PBLUC_R_SQUARED 0.117, read-out: LUCIFERASE INFECTION ASSAY - IC50) was found to be 10.1 µM.

As for `COc1ccc(-c2cnc3cnc(-c4cccc(C(=O)N(C)C)c4)cn23)cc1`, the IC90 is 4.08 µM. Also, under “PBLUC_HILL_SLOPE 11.5, PBLUC_R_SQUARED 0.453, read-out: LUCIFERASE INFECTION ASSAY - IC50”, the IC50 stood at 3.37 µM.

Regarding `COc1cc(-c2cc3nc(Nc4ccc5c[nH]nc5c4)ccn3n2)cc(OC)c1OC`, the IC90 was more than 7.92 µM. Moreover, the concentration for half-maximal inhibition (IC50) (PBLUC_HILL_SLOPE 11.7, PBLUC_R_SQUARED 0.319, read-out: LUCIFERASE INFECTION ASSAY - IC50) amounted to 7.27 µM.

For the compound `O=C(Cc1csc(COc2ccc(Cl)cc2)n1)Nc1ccccc1O`, the IC90 was more than 10 µM. Moreover, the IC50 (PBLUC_HILL_SLOPE 11.8, PBLUC_R_SQUARED 0.113, read-out: LUCIFERASE INFECTION ASSAY - IC50) came out at 9.28 µM.

On to `Cc1cc(Cl)ccc1OCCCC(=O)NCCn1c(C)nc2ccccc21`, for which the IC90 is more than 10 µM. The IC50 (PBLUC_HILL_SLOPE 11.5, PBLUC_R_SQUARED 0.538, read-out: LUCIFERASE INFECTION ASSAY - IC50) turned out to be 9.27 µM.

On to `CC(Sc1nnc(-c2ccc[nH]2)o1)C(=O)c1ccc(C(C)(C)C)cc1` (configuration not stated), for which the IC90 was more than 10 µM. Besides, the IC50 (PBLUC_HILL_SLOPE 11.5, PBLUC_R_SQUARED 0.42, read-out: LUCIFERASE INFECTION ASSAY - IC50) turned out to be 8.92 µM.

Regarding `Cc1cccc(-c2cn3c(-c4ccc(CO)cc4)cnc3cn2)c1C`, the 90% effect concentration (IC90) is more than 10 µM. In addition, the IC50 (PBLUC_HILL_SLOPE 11.7, PBLUC_R_SQUARED 0.283, read-out: LUCIFERASE INFECTION ASSAY - IC50) stood at 8.31 µM.

Regarding `CCN(CC)S(=O)(=O)c1ccc(OC(C)C)c(NC(=O)C2=CN3CCS(=O)(=O)N=C3C=C2)c1`, the IC90 is 4.52 µM. The IC50 (PBLUC_HILL_SLOPE 11.8, PBLUC_R_SQUARED 0.349, read-out: LUCIFERASE INFECTION ASSAY - IC50) is 3.75 µM.
